From PMC11481577, “Allosteric coupling of substrate binding and proton translocation in MmpL3 transporter from Mycobacterium tuberculosis” (mBio, 2024)

How the values were obtained:
MmpL3ΔC [1] = target: T1, MmpL3ΔC (Mycobacterium tuberculosis, UniProt P9WJV5); format: biochemical
MmpL3ΔC D58A [2] = target: T2, MmpL3ΔC D58A (Mycobacterium tuberculosis, UniProt P9WJV5, D58A); format: biochemical
MmpL3ΔC S66A [3] = target: T3, MmpL3ΔC S66A (Mycobacterium tuberculosis, UniProt P9WJV5, S66A); format: biochemical
MmpL3ΔC H68A = MmpL3ΔC H68A (Mycobacterium tuberculosis, UniProt P9WJV5, H68A); format: biochemical
MmpL3ΔC D139A [4] = target: T4, MmpL3ΔC D139A (Mycobacterium tuberculosis, UniProt P9WJV5, D139A); format: biochemical
MmpL3ΔC [5] = target: T1, MmpL3ΔC; format: biochemical; remark: listed apart in the source
MmpL3ΔC D58A [6] = target: T2, MmpL3ΔC D58A; format: biochemical; remark: listed apart in the source
MmpL3ΔC S66A [7] = target: T3, MmpL3ΔC S66A; format: biochemical; remark: listed apart in the source
MmpL3ΔC [8] = target: T1, MmpL3ΔC; format: biochemical; remark: listed apart in the source
MmpL3ΔC D139A [9] = target: T4, MmpL3ΔC D139A; format: biochemical; remark: listed apart in the source
[10] = tested on: MsmgΔmmpL3/pMVGH1-mmpL3tb (D58A); format: cell-based; conditions: disc with 5 µg, 7H11-ADC agar, 4 days at 37°C

Row | SMILES | Rate of fluorescence change (lipid transport activity) (MmpL3ΔC [1]) [RU/s/µM protein] | Rate of fluorescence change (lipid transport activity) (MmpL3ΔC D58A [2]) [RU/s/µM protein] | Effect on remaining lipid transfer activity (in words) (MmpL3ΔC S66A [3]) | Rate of fluorescence change (lipid transport activity) (MmpL3ΔC S66A [3]) [RU/s/µM protein] | Rate of fluorescence change (lipid transport activity) (MmpL3ΔC H68A) [RU/s/µM protein] | Rate of fluorescence change (lipid transport activity) (MmpL3ΔC D139A [4]) [RU/s/µM protein] | Effect on H+ transfer activity (in words) (MmpL3ΔC [5]) | Effect on H+ transfer activity (in words) (MmpL3ΔC D58A [6]) | Stimulation of the variant by ligand (in words) (MmpL3ΔC S66A [7]) | Effect on asymmetry of NBD-PE lipid distribution in proteoliposomes (flippase activity) (MmpL3ΔC [8]) | Effect on H+ transfer activity (in words) (MmpL3ΔC D139A [9]) | Susceptibility to growth inhibition (zone of inhibition) compared with cells producing WT Mtb MmpL3 [10]
1 | OC[C@H]1O[C@H](O[C@H]2O[C@H](CO)[C@@H](O)[C@H](O)[C@H]2O)[C@H](O)[C@@H](O)[C@@H]1O [trehalose] | 2.96 | 7.22 | inhibited | 1.20 | 0.37 | 18.84 | weakly | weakly | no significant stimulation | unaffected | – | –
2 | CCCCCCCCCCCCCCCC(=O)OC[C@H]1O[C@H](O[C@H]2O[C@H](CO)[C@@H](O)[C@H](O)[C@H]2O)[C@H](O)[C@@H](O)[C@@H]1O [Tre-C16] | 1.32 | 11.53 | inhibited | -0.02 | -0.62 | 13.43 | strongly stimulated | stimulated | no significant stimulation | unaffected | stimulated by Tre-C16 even more strongly than the parent protein | –
3 | CC(C)=CCC/C(C)=C/CNCCNC1C2CC3CC(C2)CC1C3 (centres unmarked) [SQ109] | 2.04 | 10.7 | inhibited | -0.15 | -0.12 | 2.52 | – | – | – | unaffected | – | less susceptible
